Results: patent US8129552B2, “Phospholipids with unsaturated alkyl and acyl chains” (Max-Planck-Gesellschaft zur Forderung der Wissenschaften …, priority 1998, dated 2012)
Like-named read-outs stand apart in the source and are kept apart here.

Tests used:
tumor [1] = test: Antitumor activity of alkylphosphocholines: T/C and median tumor volume after therapy (Example 5); type: in vivo; conditions: for T/C (quotient of the median tumor volume in the treated and the control group × 100): evaluation after therapy for 5 weeks
From the text: Comparison of the Known Antitumor Active Ingredient Erucylphosphocholine with Active Ingredients of the Invention
Comparison of a compound not of the invention (erucylphosphocholine) with two active ingredients of the invention is shown in Table 1.

cell culture = conditions: cited from earlier work
complex organisms = conditions: in vivo; cited from earlier work
tumor [2] = conditions: evaluation after therapy for 5 weeks, cited from earlier work
[3] = rats; cited from earlier work
[4] = oral administration; cited from earlier work

Row | SMILES | Median tumor volume, 2 weeks later (tumor [1]; dose 42 μmol/kg) [cm^3] | Median tumor volume, End of therapy (tumor [1]; dose 42 μmol/kg) [cm^3] | Median tumor volume, 2 weeks later (tumor [1]; dose 84 μmol/kg) [cm^3] | Median tumor volume, End of therapy (tumor [1]; dose 84 μmol/kg) [cm^3] | Median tumor volume, 2 weeks later (tumor [1]; dose 170 μmol/kg) [cm^3] | Median tumor volume, End of therapy (tumor [1]; dose 170 μmol/kg) [cm^3] | Median tumor volume, 2 weeks later (tumor [1]; dose 256 μmol/kg) [cm^3] | Median tumor volume, End of therapy (tumor [1]; dose 256 μmol/kg) [cm^3] | other results
1 | C=CCCCCCCCC/C=C\CCCCCCCCCCOP(=O)([O-])OCC[N+](C)(C)C [(Z)-11,21-Docosadienyl-1-PC, (Z)-11,21-docosadienyl-1-phosphocholine] | 2.5 | 1.5 | 2.9 | 0.9 | 0.5 | 0.4 | – | – | T/C (quotient of the median tumor volume in the treated and the control group × 100) (tumor [1]; weekly dose 42 μmol/kg): 8%; T/C (quotient of the median tumor volume in the treated and the control group × 100) (tumor [1]; weekly dose 170 μmol/kg): 2%
2 | CCCCCCCCCCCCCCCCCCOCC(COP(=O)([O-])OCC[N+](C)(C)C)OC (racemic) [ET18-OCH3, 1-O-octadecyl-2-O-methyl-rac-glycero-3-phosphocholine] | – | – | – | – | – | – | – | – | antineoplastic activity in cell-culture experiments (cell culture): excellent antineoplastic activity; activity in complex organisms (complex organisms): virtually inactive
3 | CCCCCCCCCCC/C=C\CCCCCCCCCOP(=O)([O-])OCC[N+](C)(C)C [(Z)-10-Docosenyl-1-PC, (Z)-10-docosenyl-1-phosphocholine] | 4.5 | 4.0 | 3.4 | 1.2 | 0.2 | 0.2 | 0.2 | 0.1 | T/C (quotient of the median tumor volume in the treated and the control group × 100) (tumor [1]; weekly dose 42 μmol/kg): 9%; T/C (quotient of the median tumor volume in the treated and the control group × 100) (tumor [1]; weekly dose 170 μmol/kg): 0.5%; T/C (quotient of the median tumor volume in the treated and the control group × 100) (tumor [1]; weekly dose 256 μmol/kg): 0.2%
4 | CCCCCCCC/C=C\CCCCCCCCCCCCOP(=O)([O-])OCC[N+](C)(C)C [Erucylphosphocholine, erucylphosphocholine] | – | – | – | – | – | – | – | – | T/C (quotient of the median tumor volume in the treated and the control group × 100) (tumor [2]; weekly dose 90 μmol/kg): 31%; T/C (quotient of the median tumor volume in the treated and the control group × 100) (tumor [2]; weekly dose 180 μmol/kg): 6%; T/C (quotient of the median tumor volume in the treated and the control group × 100) (tumor [2]; weekly dose 360 μmol/kg): <0.1%
5 | CCCCC/C=C\CCCCCCCCCCCCCCCOP(=O)([O-])OCC[N+](C)(C)C [(Z)-16-Docosenyl-1-phosphocholine, (Z)-16-docosenyl-1-phosphocholine] | – | 26.9 | 7.6 | 2.5 | 0.4 | 0.2 | – | – | –
6 | CCCCCCCCCCCCCCCCOP(=O)([O-])OCC[N+](C)(C)C [HePC, hexadecylphosphocholine] | – | – | – | – | – | – | – | – | adverse effect of direct intravenous administration of a solution [3]: thrombophlebitis; toxicity in clinical studies [4]: toxicities in the gastrointestinal tract
7 | CCCCC/C=C\CCCC/C=C\CCCCCCCCCOP(=O)([O-])OCC[N+](C)(C)C [(Z,Z)-10,16-Docosadienyl-1-PC, (Z,Z)-10,16-docosadienyl-1-phosphocholine] | 11.4 | 7.5 | 0.6 | 0.6 | 0.7 | 0.5 | – | – | –
8 | CCCCCCC/C=C\CCCC/C=C\CCCCCOP(=O)([O-])OCC[N+](C)(C)C [(Z,Z)-6,12-Eicosadienyl-1-PC, (Z,Z)-6,12-eicosadienyl-1-phosphocholine] | 13.9 | 10 | 13.9 | 3.2 | 1.9 | 0.4 | 0 | 0 | –
9 | CCCCCCCC/C=C\CCCCCCCCCCCOP(=O)([O-])OCC[N+](C)(C)C [(Z)-12-Heneicosenyl-1-phosphocholine, (Z)-12-heneicosenyl-1-phosphocholine] | 4.5 | 3.4 | 1.2 | 0.3 | 0.1 | 0.1 | 0.8 | 0.2 | –
